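Tested at 5 concentrations; 48 h exposure; 96-well plates; endpoints linearly interpolated, else capped at highest concentration. TGI: total growth inhibition.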
How the values were obtained:
Experiment in all cases: growth of human tumour cells (NCI), 48 h
KM20L2 colon = tested on: KM20L2 colon
K-562 leukemia = tested on: K-562 leukemia
HOP-18 NSCLC = tested on: HOP-18 NSCLC
OVCAR-8 ovarian = tested on: OVCAR-8 ovarian
SNB-75 CNS = tested on: SNB-75 CNS
SW-620 colon = tested on: SW-620 colon
RXF 393 renal = tested on: RXF 393 renal
SK-MEL-2 melanoma = tested on: SK-MEL-2 melanoma
HCT-116 colon = tested on: HCT-116 colon
SF-268 CNS = tested on: SF-268 CNS
U251 CNS = tested on: U251 CNS
SNB-19 CNS = tested on: SNB-19 CNS
MOLT-4 leukemia = tested on: MOLT-4 leukemia
HT29 colon = tested on: HT29 colon
HOP-62 NSCLC = tested on: HOP-62 NSCLC
OVCAR-4 ovarian = tested on: OVCAR-4 ovarian
DLD-1 colon = tested on: DLD-1 colon
LOX IMVI melanoma = tested on: LOX IMVI melanoma
SF-539 CNS = tested on: SF-539 CNS
COLO 205 colon = tested on: COLO 205 colon
A549 NSCLC = tested on: A549 NSCLC
HL-60(TB) leukemia = tested on: HL-60(TB) leukemia
SK-MEL-5 melanoma = tested on: SK-MEL-5 melanoma
NCI-H226 lung = tested on: NCI-H226 lung
XF 498 CNS = tested on: XF 498 CNS
HCT-15 colon = tested on: HCT-15 colon
M19-MEL melanoma = tested on: M19-MEL melanoma
NCI-H23 lung = tested on: NCI-H23 lung
ACHN renal = tested on: ACHN renal
UACC-257 melanoma = tested on: UACC-257 melanoma
M14 melanoma = tested on: M14 melanoma
SNB-78 CNS = tested on: SNB-78 CNS
OVCAR-3 ovarian = tested on: OVCAR-3 ovarian
DMS 273 small cell lung = tested on: DMS 273 small cell lung
OVCAR-5 ovarian = tested on: OVCAR-5 ovarian
A498 renal = tested on: A498 renal
SF-295 CNS = tested on: SF-295 CNS
LXFL 529 NSCLC = tested on: LXFL 529 NSCLC
IGROV1 ovarian = tested on: IGROV1 ovarian
KM12 colon = tested on: KM12 colon
TK-10 renal = tested on: TK-10 renal
DMS 114 small cell lung = tested on: DMS 114 small cell lung
NCI-H522 lung = tested on: NCI-H522 lung
HCC-2998 colon = tested on: HCC-2998 colon
NCI-H460 lung = tested on: NCI-H460 lung
EKVX NSCLC = tested on: EKVX NSCLC
SK-OV-3 ovarian = tested on: SK-OV-3 ovarian
UO-31 renal = tested on: UO-31 renal
786-0 renal = tested on: 786-0 renal
SK-MEL-28 melanoma = tested on: SK-MEL-28 melanoma
MALME-3M melanoma = tested on: MALME-3M melanoma
CCRF-CEM leukemia = tested on: CCRF-CEM leukemia
SN12C renal = tested on: SN12C renal
RXF-631 renal = tested on: RXF-631 renal
HOP-92 NSCLC = tested on: HOP-92 NSCLC
CAKI-1 renal = tested on: CAKI-1 renal
UACC-62 melanoma = tested on: UACC-62 melanoma
SR leukemia = tested on: SR leukemia
RPMI-8226 leukemia = tested on: RPMI-8226 leukemia

COc1cc2cc(OC(C)=O)c3cc4c(cc3c2c(OC)c1OC)OCO4
TGI (KM20L2 colon): > 100 µM
TGI (K-562 leukemia): > 100 µM
TGI (HOP-18 NSCLC): > 100 µM
TGI (OVCAR-8 ovarian): > 100 µM
TGI (SNB-75 CNS): > 100 µM
TGI (SW-620 colon): > 100 µM
TGI (RXF 393 renal): > 100 µM
TGI (SK-MEL-2 melanoma): > 100 µM
TGI (HCT-116 colon): > 100 µM
TGI (SF-268 CNS): > 100 µM
TGI (U251 CNS): > 100 µM
TGI (SNB-19 CNS): > 100 µM
TGI (MOLT-4 leukemia): > 100 µM
TGI (HT29 colon): > 100 µM
TGI (HOP-62 NSCLC): > 100 µM
TGI (OVCAR-4 ovarian): > 100 µM
TGI (DLD-1 colon): > 100 µM
TGI (LOX IMVI melanoma): > 100 µM
TGI (SF-539 CNS): > 100 µM
TGI (COLO 205 colon): > 100 µM
TGI (A549 NSCLC): > 100 µM
TGI (HL-60(TB) leukemia): > 100 µM
TGI (SK-MEL-5 melanoma): > 100 µM
TGI (NCI-H226 lung): > 100 µM
TGI (XF 498 CNS): > 100 µM
TGI (HCT-15 colon): > 100 µM
TGI (M19-MEL melanoma): > 100 µM
TGI (NCI-H23 lung): > 100 µM
TGI (ACHN renal): > 100 µM
TGI (UACC-257 melanoma): > 100 µM
TGI (M14 melanoma): > 100 µM
TGI (SNB-78 CNS): > 100 µM
TGI (OVCAR-3 ovarian): > 100 µM
TGI (DMS 273 small cell lung): > 100 µM
TGI (OVCAR-5 ovarian): > 100 µM
TGI (A498 renal): > 100 µM
TGI (SF-295 CNS): > 100 µM
TGI (LXFL 529 NSCLC): > 100 µM
TGI (IGROV1 ovarian): > 100 µM
TGI (KM12 colon): > 100 µM
TGI (TK-10 renal): > 100 µM
TGI (DMS 114 small cell lung): > 100 µM
TGI (NCI-H522 lung): > 100 µM
TGI (HCC-2998 colon): > 100 µM
TGI (NCI-H460 lung): > 100 µM
TGI (EKVX NSCLC): > 100 µM
TGI (SK-OV-3 ovarian): > 100 µM
TGI (UO-31 renal): > 100 µM
TGI (786-0 renal): > 100 µM
TGI (SK-MEL-28 melanoma): > 100 µM
TGI (MALME-3M melanoma): > 100 µM
TGI (CCRF-CEM leukemia): > 100 µM
TGI (SN12C renal): > 100 µM
TGI (RXF-631 renal): > 100 µM

NCCSSCc1ccccc1CSSCCN
TGI (KM20L2 colon): > 100 µM
TGI (K-562 leukemia): 43.4 µM
TGI (HOP-18 NSCLC): > 100 µM
TGI (OVCAR-8 ovarian): > 100 µM
TGI (SNB-75 CNS): > 100 µM
TGI (SW-620 colon): 45.8 µM
TGI (RXF 393 renal): > 100 µM
TGI (HCT-116 colon): > 100 µM
TGI (SF-268 CNS): > 100 µM
TGI (U251 CNS): > 100 µM
TGI (SNB-19 CNS): > 100 µM
TGI (MOLT-4 leukemia): > 100 µM
TGI (HOP-92 NSCLC): > 100 µM
TGI (HT29 colon): > 100 µM
TGI (HOP-62 NSCLC): > 100 µM
TGI (OVCAR-4 ovarian): > 100 µM
TGI (DLD-1 colon): > 100 µM
TGI (LOX IMVI melanoma): 41.8 µM
TGI (SF-539 CNS): > 100 µM
TGI (COLO 205 colon): > 100 µM
TGI (A549 NSCLC): > 100 µM
TGI (HL-60(TB) leukemia): 29.6 µM
TGI (SK-MEL-5 melanoma): > 100 µM
TGI (NCI-H226 lung): > 100 µM
TGI (XF 498 CNS): > 100 µM
TGI (HCT-15 colon): > 100 µM
TGI (M19-MEL melanoma): > 100 µM
TGI (NCI-H23 lung): > 100 µM
TGI (ACHN renal): > 100 µM
TGI (UACC-257 melanoma): > 100 µM
TGI (CAKI-1 renal): > 100 µM
TGI (M14 melanoma): > 100 µM
TGI (SNB-78 CNS): > 100 µM
TGI (OVCAR-3 ovarian): > 100 µM
TGI (UACC-62 melanoma): > 100 µM
TGI (DMS 273 small cell lung): > 100 µM
TGI (OVCAR-5 ovarian): > 100 µM
TGI (A498 renal): > 100 µM
TGI (SF-295 CNS): > 100 µM
TGI (SR leukemia): > 100 µM
TGI (RPMI-8226 leukemia): > 100 µM
TGI (LXFL 529 NSCLC): > 100 µM
TGI (IGROV1 ovarian): > 100 µM
TGI (KM12 colon): > 100 µM
TGI (TK-10 renal): > 100 µM
TGI (DMS 114 small cell lung): > 100 µM
TGI (NCI-H522 lung): 27.8 µM
TGI (HCC-2998 colon): > 100 µM
TGI (NCI-H460 lung): > 100 µM
TGI (EKVX NSCLC): > 100 µM
TGI (SK-OV-3 ovarian): > 100 µM
TGI (UO-31 renal): > 100 µM
TGI (786-0 renal): > 100 µM
TGI (SK-MEL-28 melanoma): > 100 µM
TGI (MALME-3M melanoma): > 100 µM
TGI (SN12C renal): > 100 µM
TGI (RXF-631 renal): > 100 µM
